In US20210070748A1, “INHIBITORS OF BRUTONS TYROSINE KINASE” (Pharmacyclics LLC, priority 2015, published 2021):

Experiments:
ITK = biological target: T1, ITK (Homo sapiens, UniProt Q08881); test: Inhibition of a panel of kinases, in vitro HotSpot kinase assay: ITK; type: biochemical
T1 sequence (Q08881 1-620): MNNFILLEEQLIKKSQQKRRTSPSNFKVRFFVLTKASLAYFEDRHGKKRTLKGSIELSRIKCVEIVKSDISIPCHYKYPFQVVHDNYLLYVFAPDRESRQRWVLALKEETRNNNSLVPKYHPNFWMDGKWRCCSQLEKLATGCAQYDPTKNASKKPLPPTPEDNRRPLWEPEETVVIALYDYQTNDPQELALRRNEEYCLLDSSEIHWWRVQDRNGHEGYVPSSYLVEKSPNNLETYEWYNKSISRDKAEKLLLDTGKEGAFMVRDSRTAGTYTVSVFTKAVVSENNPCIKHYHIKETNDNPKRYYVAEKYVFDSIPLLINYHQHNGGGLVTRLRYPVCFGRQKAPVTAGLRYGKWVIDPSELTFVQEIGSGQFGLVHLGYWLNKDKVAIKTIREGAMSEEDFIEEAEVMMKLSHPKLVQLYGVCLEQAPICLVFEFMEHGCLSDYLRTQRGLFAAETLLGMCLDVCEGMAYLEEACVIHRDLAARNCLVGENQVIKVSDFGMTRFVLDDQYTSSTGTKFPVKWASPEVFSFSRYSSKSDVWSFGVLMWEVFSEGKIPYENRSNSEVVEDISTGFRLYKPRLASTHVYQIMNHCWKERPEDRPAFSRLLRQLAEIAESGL
Experimental: (§1) The degree of inhibition of a panel of kinases is determined using the in vitro HotSpot kinase assay (purified enzymes, ^33P-ATP, an appropriate substrate and 1 μM ATP).

TEC = biological target: T2, TEC (Homo sapiens, UniProt P42680); test: Inhibition of a panel of kinases, in vitro HotSpot kinase assay: TEC; type: biochemical
T2 sequence (P42680 1-631): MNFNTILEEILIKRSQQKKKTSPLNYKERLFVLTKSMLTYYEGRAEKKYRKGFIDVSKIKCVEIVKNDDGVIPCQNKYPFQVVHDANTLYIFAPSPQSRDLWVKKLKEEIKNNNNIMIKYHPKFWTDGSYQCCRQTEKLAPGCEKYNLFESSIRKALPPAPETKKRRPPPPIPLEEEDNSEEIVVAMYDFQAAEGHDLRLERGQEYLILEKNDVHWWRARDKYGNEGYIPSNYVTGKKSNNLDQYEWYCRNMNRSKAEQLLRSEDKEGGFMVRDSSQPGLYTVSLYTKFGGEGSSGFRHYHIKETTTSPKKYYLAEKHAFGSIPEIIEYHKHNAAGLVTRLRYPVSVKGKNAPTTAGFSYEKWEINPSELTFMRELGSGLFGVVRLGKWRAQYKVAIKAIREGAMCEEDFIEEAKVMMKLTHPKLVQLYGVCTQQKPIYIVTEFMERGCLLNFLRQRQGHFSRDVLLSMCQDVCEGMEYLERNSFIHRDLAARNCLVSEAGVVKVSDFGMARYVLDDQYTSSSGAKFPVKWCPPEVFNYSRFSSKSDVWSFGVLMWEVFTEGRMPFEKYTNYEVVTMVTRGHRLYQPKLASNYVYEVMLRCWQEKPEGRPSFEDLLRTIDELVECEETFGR
Experimental: as §1

[1] = Table 13, A compounds, 1 μM ATP

Structure (SMILES) | IC50 (ITK; [1]) [nM] | IC50 (TEC; [1]) [nM] | IC50 (ITK; E compounds, Table 17) [nM] | IC50 (TEC; E compounds, Table 17) [nM]
C[C@@H]1[C@H](NC(=O)c2ccc(C3CC3)c(Cl)c2)CCCN1c1cnc(C(N)=O)c(Nc2ccc(N3CCN(C)CC3)cc2)n1 [Example A-189, 5-((2R,3R)-3-(3-chloro-4-cyclopropylbenzamido)-2-methylpiperidin-1-yl)-3-(4-(4-methylpiperazin-1-yl)phenylamino)pyrazine-2-carboxamide] | 100 to 1000 | 100 to 1000 |  | 
C[C@@H]1[C@H](NC(=O)c2ccc(C3CC3)nc2)CCCN1c1cnc(C(N)=O)c(Nc2cnn(C)c2)n1 [Example A-190, 5-((2R,3R)-3-(6-cyclopropylnicotinamido)-2-methylpiperidin-1-yl)-3-(1-methyl-1H-pyrazol-4-ylamino)pyr-azine-2-carboxamide] | 100 to 1000 | 10 to 100 |  | 
C=CC(=O)N[C@@H]1CCCN(c2nnc(C(N)=O)c(Nc3ccc(C4(C)CCN(C5CC5)CC4)cc3)n2)[C@@H]1C [Example E-2, 3-((2R,3R)-3-acrylamido-2-methylpiperidin-1-yl)-5-((4-(1-cyclopropyl-4-methylpiperidin-4-yl)phenyl)amino)-1,2,4-triazine-6-carboxamide] |  |  | 10 to 100 | ≤ 10
C=CC(=O)N[C@@H]1CCCN(c2nnc(C(N)=O)c(Nc3ccc(Cl)cc3)n2)[C@@H]1C [Example E-5, 3-((2R,3R)-3-acrylamido-2-methylpiperidin-1-yl)-5-((4-chlorophenyl)amino)-1,2,4-triazine-6-carboxamide] |  |  | 10 to 100 | ≤ 10
C=CC(=O)N1CCC[C@@H](Nc2nnc(C(N)=O)c(Nc3ccc(Cl)cc3)n2)[C@H]1C [Example E-7, 3-(((2R,3R)-1-acryloyl-2-methylpiperidin-3-yl)amino)-5-((4-chlorophenyl)amino)-1,2,4-triazine-6-carboxamide] |  |  | ≤ 10 | ≤ 10
Cc1cc(Nc2nc(N3CC[C@H](O)[C@@H](N4CCC[C@@H](Nc5cc(Cl)cc(C(F)(F)F)c5)C4=O)C3)nnc2C(N)=O)sn1 [Example E-10, 3-((3R,3'S,4'S)-3-(3-chloro-5-(trifluoromethyl)phenylamino)-4′-hydroxy-2-oxo-1,3′-bipiperidin-1-yl)-5-(3-methylisothiazol-5-ylamino)-1,2,4-triazine-6-carboxamide] |  |  | ≤ 10 | 10 to 100
C=CC(=O)N1CCC[C@@H](Nc2nnc(C(N)=O)c(Nc3cc(C)ns3)n2)C1 [Example E-11, (R)-3-(1-acryloylpiperidin-3-ylamino)-5-(3-methylisothiazol-5-ylamino)-1,2,4-triazine-6-carboxamide] |  |  | ≤ 10 | ≤ 10
C=CC(=O)N1CC[C@@H](N(C)c2nnc(C(N)=O)c(Nc3cc(C)ns3)n2)C1 [Example E-12, (R)-3-((1-acryloylpyrrolidin-3-yl)(methyl)amino)-5-(3-methylisothiazol-5-ylamino)-1,2,4-triazine-6-carboxamide] |  |  | ≤ 10 | ≤ 10
C=CC(=O)N[C@@H]1CCCN(c2cnc(C(N)=O)c(Nc3cc(C)ns3)n2)[C@@H]1C [Example E-97, 5-((2R,3R)-3-acrylamido-2-methylpiperidin-1-yl)-3-(3-methylisothiazol-5-ylamino)pyrazine-2-carboxamide] |  |  | 10 to 100 | ≤ 10
C=CC(=O)N1CCC[C@@H](N(C)c2cnc(C(N)=O)c(Nc3ccc(C4(C)CCN(C5CCCC5)CC4)cc3)n2)C1 [Example E-103, (R)-5-((1-acryloylpiperidin-3-yl)(methyl)amino)-3-(4-(1-cyclopentyl-4-methylpiperidin-4-yl)phenylamino)pyrazine-2-carboxamide] |  |  | ≤ 10 | ≤ 10

Second part, the compound after the results:

IC50 (ITK; [1]) [nM] | IC50 (TEC; [1]) [nM] | IC50 (ITK; E compounds, Table 17) [nM] | IC50 (TEC; E compounds, Table 17) [nM] | Structure (SMILES)
1000 to 10000 | 100 to 1000 |  |  | Cn1cc(Nc2nc(N3C[C@H](NC(=O)c4ccc(C5CC5)cc4)CC(F)(F)C3)cnc2C(N)=O)cn1 [Example A-188, (R)-5-(5-(4-cyclopropylbenzamido)-3,3-difluoropiperidin-1-yl)-3-(1-methyl-1H-pyrazol-4-ylamino)pyrazine-2-carboxamide]
 |  | ≤ 10 | ≤ 10 | C=CC(=O)N1CCC[C@@H](Nc2nnc(C(N)=O)c(Nc3ccc(C(C)(C)C)cc3)n2)C1 [Example E-24, (R)-3-(1-acryloylpiperidin-3-ylamino)-5-(4-tert-butylphenylamino)-1,2,4-triazine-6-carboxamide]
 |  | ≤ 10 | ≤ 10 | C=CC(=O)N1CC[C@@H](N(C)c2nnc(C(N)=O)c(Nc3ccc(C(C)C)cc3)n2)C1 [Example E-26, (R)-3-((1-acryloylpyrrolidin-3-yl)(methyl)amino)-5-(4-isopropylphenylamino)-1,2,4-triazine-6-carboxamide]
 |  | 10 to 100 | ≤ 10 | C=CC(=O)N1CCC[C@@H](Nc2nnc(C(N)=O)c(Nc3ccc(-c4ncco4)cc3)n2)C1 [Example E-40, (R)-3-(1-acryloylpiperidin-3-ylamino)-5-(4-(oxazol-2-yl)phenylamino)-1,2,4-triazine-6-carboxamide]
 |  | 10 to 100 | ≤ 10 | C=CC(=O)N1CCC[C@@H](Nc2nnc(C(N)=O)c(Nc3ccc(-c4ncccn4)cc3)n2)C1 [Example E-41, (R)-3-(1-acryloylpiperidin-3-ylamino)-5-(4-(pyrimidin-2-yl)phenylamino)-1,2,4-triazine-6-carboxamide]
 |  | ≤ 10 | ≤ 10 | C=CC(=O)N1CCC[C@@H](Nc2nnc(C(N)=O)c(Nc3ccc(C4CCN(C(=O)CC)CC4)cc3)n2)C1 [Example E-45, (R)-3-(1-acryloylpiperidin-3-ylamino)-5-(4-(1-propionylpiperidin-4-yl)phenylamino)-1,2,4-triazine-6-carboxamide]
 |  | 10 to 100 | ≤ 10 | C=CC(=O)N[C@@H]1CCCN(c2cnc(C(N)=O)c(Nc3ccc(C4CCN(C5CC5)CC4)cc3)n2)[C@@H]1C [Example E-93, 5-((2R,3R)-3-acrylamido-2-methylpiperidin-1-yl)-3-(4-(1-cyclopropylpiperidin-4-yl)phenylamino)pyrazine-2-carboxamide]
 |  | 10 to 100 | ≤ 10 | C=CC(=O)N1CCC[C@@H](N(C)c2cnc(C(N)=O)c(Nc3ccc(C(C)C)cc3)n2)C1 [Example E-102, (R)-5-((1-acryloylpiperidin-3-yl)(methyl)amino)-3-(4-isopropylphenylamino) pyrazine-2-carboxamide]
 |  | ≤ 10 | ≤ 10 | C=CC(=O)N1CC[C@@H](N(C)c2cnc(C(N)=O)c(Nc3ccc(C4CCN(C5CCCC5)CC4)cc3)n2)C1 [Example E-109, (R)-5-((1-acryloylpyrrolidin-3-yl)(methyl)amino)-3-(4-(1-cyclopentylpiperidin-4-yl)phenylamino)pyrazine-2-carboxamide]
 |  | ≤ 10 | ≤ 10 | C=CC(=O)N1CC[C@@H](N(C)c2cnc(C(N)=O)c(Nc3cnn(CCOC)c3)n2)C1 [Example E-110, (R)-5-((1-acryloylpyrrolidin-3-yl)(methyl)amino)-3-(1-(2-methoxyethyl)-1H-pyrazol-4-ylamino)pyrazine-2-carboxamide]
 |  | ≤ 10 | ≤ 10 | C=CC(=O)N1CC[C@@H](N(C)c2cnc(C(N)=O)c(Nc3ccc(C4CCN(C5CC5)CC4)cc3)n2)C1 [Example E-121, (R)-5-((1-acryloylpyrrolidin-3-yl)(methyl)amino)-3-(4-(1-cyclopropylpiperidin-4-yl)phenylamino)pyrazine-2-carboxamide]
